Results reported in patent US11286241B2, “Compositions and methods for treating cancer” (GLAX LLC, priority 2018, dated 2022).
“Also recorded” adds a separate entry of the source.

Key:
[1] = tested on: human pancreatic cancer cells; experiment: Cell viability of human pancreatic cancer cells (FIG. 12A, B); assay type: cell-based
[2] = tested on: human normal pancreatic ductal epithelial (HPNE) cells; experiment: Cell viability of normal pancreatic ductal epithelial cells (FIG. 12C); assay type: cell-based
[3] = tested on: human breast cancer cells; experiment: Cell viability of human breast cancer cells (FIG. 12D); assay type: cell-based
[4] = tested on: human normal ductal epithelial (HMEC) cells; experiment: Cell viability of normal ductal epithelial cells (FIG. 12D); assay type: cell-based
Gli reporter = Gli reporter activity (FIG. 12E); assay type: cell-based
[5] = tested on: Gli1, Patched-1, Cyclin D1, Bcl-2, and Nanog; experiment: Expression of Gli target genes in breast cancer cells (FIG. 12F); assay type: cell-based
[6] = tested on: hepatocarcinoma (HCC)/liver cancer cells; experiment: Cell viability of hepatocarcinoma cells (FIG. 13); assay type: cell-based
human normal hepatocytes = experiment: Cell viability of normal hepatocytes (FIG. 13); assay type: cell-based
Gli pathway = Gli pathway in HCC (FIG. 13); assay type: cell-based
lung cancer A549 cells = experiment: Apoptosis in lung cancer cells (FIG. 14); assay type: cell-based
[7] = tested on: prostate cancer PC-3 cells; experiment: Apoptosis in prostate cancer cells (FIG. 14); assay type: cell-based
human brain cancer cells = experiment: Cell viability of human brain cancer cells (FIG. 15); assay type: cell-based
brain cancer stem cells = experiment: Cell viability of brain cancer stem cells (FIG. 15); assay type: cell-based, human
[8] = tested on: human prostate cancer cells; experiment: Combination cell viability in human prostate cancer cells (FIG. 16); assay type: cell-based; details: with PF05212384 (PI3K/mTOR dual inhibitor)
[9] = tested on: human breast cancer cells; experiment: Combination cell viability in human breast cancer cells (FIG. 17); assay type: cell-based
pancreatic cancer cells = experiment: Combination cell viability in pancreatic cancer cells (FIG. 17); assay type: cell-based, human
[10] = tested on: pancreatic cancer xenograft; experiment: Xenografted tumor growth, pancreatic cancer model (FIG. 18); assay type: in vivo
liver cancer xenograft = experiment: Xenografted tumor growth, liver cancer model (FIG. 18); assay type: in vivo
[11] = tested on: prostate cancer xenograft; experiment: Xenografted tumor growth, prostate cancer model (FIG. 18); assay type: in vivo
breast cancer xenograft = experiment: Xenografted tumor growth, breast cancer model (FIG. 18); assay type: in vivo
[12] = tested on: pancreatic cancer AsPC-1 cells; experiment: Apoptosis in pancreatic cancer AsPC-1 cells; assay type: cell-based
liver cancer HEPG2 cells = experiment: Apoptosis in liver cancer HEPG2 cells; assay type: cell-based
[13] = tested on: prostate cancer PC-3 cells; experiment: Combination apoptosis in prostate cancer PC-3 cells; assay type: cell-based; details: with PF05212384
[14] = tested on: prostate cancer DU145 cells; experiment: Combination apoptosis in prostate cancer DU145 cells; assay type: cell-based; details: with PF05212384
[15] = tested on: colorectal cancer HCT116 cells; experiment: Combination apoptosis in colorectal cancer HCT116 cells; assay type: cell-based; details: with PF05212384, listed as SST7
liver cancer HEP3B cells = experiment: Combination apoptosis in liver cancer HEP3B cells; assay type: cell-based; details: with PF05212384, listed as SST7
[16] = with histone deacetylase inhibitor SAHA

Compound: OC(CNc1ccc(Cl)cc1)CNc1ccc(-c2nc3ccccc3o2)cc1 (stereo not shown) [Compound 8, 1-(4-(benzo[d]oxazol-2-yl)phenylamino)-3-(4-chlorophenylamino)propane-2-ol]
- cell viability [1]: inhibits cell viability
- cell viability [2]: has no effect
- cell viability [3]: inhibits cell viability
- cell viability [4]: has no effect
- Gli reporter activity (Gli reporter): inhibits
- expression of Gli1, Patched-1, Cyclin D1, Bcl-2, and Nanog [5]: inhibits
- cell viability [6]: inhibits cell viability
- cell viability (human normal hepatocytes): has no effect
- Gli pathway (Gli pathway): inhibits Gli pathway
- apoptosis (lung cancer A549 cells): induces apoptosis
- apoptosis [7]: induces apoptosis
- cell viability (human brain cancer cells): inhibits cell viability
- cell viability (brain cancer stem cells): inhibits cell viability
- cell viability, combination [8]: co-operates
- cell viability, combination ([9]; with PF05212384): co-operates
- cell viability, combination [9, 16]: co-operates
- cell viability, combination (pancreatic cancer cells; with PF05212384): co-operates
- cell viability, combination (pancreatic cancer cells; [16]): co-operates
- xenografted tumor growth [10]: inhibits xenografted tumor growth
- xenografted tumor growth (liver cancer xenograft): inhibits xenografted tumor growth
- xenografted tumor growth [11]: inhibits xenografted tumor growth
- xenografted tumor growth (breast cancer xenograft): inhibits xenografted tumor growth
- apoptosis [12]: induces apoptosis
- apoptosis (liver cancer HEPG2 cells): induces apoptosis
- apoptosis, combination [13]: act in a cooperative manner to induce apoptosis
- apoptosis, combination [14]: act in a cooperative manner to induce apoptosis
- apoptosis, combination [15]: synergistic; also recorded: act in a cooperative manner to induce apoptosis
- apoptosis, combination (liver cancer HEP3B cells): synergistic; also recorded: act in a cooperative manner to induce apoptosis
